Experimental data: article PMC8596838, “Xylose‐Configured Cyclophellitols as Selective Inhibitors for Glucocerebrosidase” (Chembiochem, 2021)

Target: T1, GBA2 E527G mutant and E527G/D667G double mutant (Homo sapiens, UniProt Q9HCG7, E527G)
T1 construct: expressed in transfected cells; host or cells: HEK293T
T1 sequence (Q9HCG7 1-927 E527G): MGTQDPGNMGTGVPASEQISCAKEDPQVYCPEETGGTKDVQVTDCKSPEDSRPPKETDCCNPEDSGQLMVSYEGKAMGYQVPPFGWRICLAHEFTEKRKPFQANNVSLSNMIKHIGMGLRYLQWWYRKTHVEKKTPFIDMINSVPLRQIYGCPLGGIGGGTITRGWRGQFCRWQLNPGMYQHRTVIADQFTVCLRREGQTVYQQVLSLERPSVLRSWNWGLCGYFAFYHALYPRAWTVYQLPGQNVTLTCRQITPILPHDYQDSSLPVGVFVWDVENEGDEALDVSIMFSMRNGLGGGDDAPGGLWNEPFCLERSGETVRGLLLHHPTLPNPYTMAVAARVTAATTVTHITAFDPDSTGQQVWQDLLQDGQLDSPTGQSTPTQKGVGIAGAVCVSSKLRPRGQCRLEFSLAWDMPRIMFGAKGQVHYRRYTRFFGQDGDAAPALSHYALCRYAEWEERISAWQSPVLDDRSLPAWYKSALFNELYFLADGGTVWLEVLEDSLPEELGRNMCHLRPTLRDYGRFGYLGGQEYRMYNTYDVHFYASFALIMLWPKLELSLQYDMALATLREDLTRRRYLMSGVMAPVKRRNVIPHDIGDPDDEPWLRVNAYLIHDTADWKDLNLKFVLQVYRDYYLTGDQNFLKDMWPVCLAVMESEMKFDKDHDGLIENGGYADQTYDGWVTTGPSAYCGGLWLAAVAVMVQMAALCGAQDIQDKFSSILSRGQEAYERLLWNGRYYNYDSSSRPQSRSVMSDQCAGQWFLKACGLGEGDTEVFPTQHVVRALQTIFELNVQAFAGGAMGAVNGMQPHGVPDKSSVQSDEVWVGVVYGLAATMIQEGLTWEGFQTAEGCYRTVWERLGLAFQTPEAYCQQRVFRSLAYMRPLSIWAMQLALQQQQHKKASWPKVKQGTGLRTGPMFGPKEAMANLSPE
Assay: ABP labeling of mutant GBA2 expressed in HEK293T cells
Format: biochemical
Settings: HEK293T cells expressing mutant GBA2
Protocol: Figure 4 (A) ABP labeling of β‐D‐glucosidases. A lysate of HEK293T cells expressing human GBA, GBA2 and GBA3 was incubated with indicated ABPs (6, 9 or 10) for 30 min at pH 6.0. Fluorescently labeled proteins were visualized after SDS‐PAGE. (B) Labeling with ABP 6 of wild type or mutant GBA2 (E527G nucleophile mutation and D667G acid/base mutation) expressed in HEK293T cells.
Cell culture: HEK293T (CRL‐3216) were purchased from ATCC (Manassas, VA, USA). HEK293T cells were cultured in DMEM medium (Sigma‐Aldrich), supplied with 10 % (v/v) FCS, 0.1 % (w/v) penicillin/streptomycin and 1 % (v/v) Glutamax, under 7 % CO2. […] First the GBA Knockout cells were generated using the annealed oligonucleotides (top strand) 5’‐CACCGCGCTATGAGAGTACACGCAG‐3’ and (bottom strand 5’‐AAACCTGCGTGTACTCTCATAGCGC‐3’ and after ligation in the BbsI site of the px330 and subsequent transfection into the HEK293T cells. Single cells were created and the different clones were analyzed for lack of expression of GBA with enzyme activity assays and ABPs and subsequent genomic sequence analysis. The true GBA knockout cells were next used to create the GBA/GBA2 double knockout cells (using the px330 and the following annealed and ligated oligonucleotides (top strand 5‐CACCGGACGGACTGCTGCAATCCGG‐3’ and bottom strand 5’‐AAACCCGGATTGCAGCAGTCCGTCC‐3’. […]

CN1/C(=C/C=C/C=C/C2=[N+](CCCCCC(=O)NCc3cn(CCCCCCCCN4[C@H]5[C@H](O)[C@@H](O)[C@H](O)C[C@H]54)nn3)c3ccccc3C2(C)C)C(C)(C)c2ccccc21 (stereo partly shown) [ABP 6]
labeling of GBA2 E527G mutant and E527G/D667G double mutant: no longer labeled
